What all share (test): inhibition of tumour cell growth, NCI panel, 48 h
Assay [1] concerns MDA-MB-231 breast.
Assay [2] concerns NCI-H522 lung.
Assay [3] has as its system SN12C renal.
In assay [4] the test system is OVCAR-8 ovarian.
Assay [5] deals with HOP-62 NSCLC.
For assay [6], the system named is HOP-92 NSCLC.
Assay [7] has as its system U251 CNS.
Assay [8] relates to BT-549 breast.
Assay [9] has as its system SK-MEL-28 melanoma.
Assay [10] concerns OVCAR-4 ovarian.
For assay [11], the system named is NCI-H460 lung.

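Briefly, cells in 96-well plates were exposed to five compound concentrations for 48 h, and endpoints were estimated by linear interpolation. TGI is the concentration that stops growth completely.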

For the molecule `O=C(CN1C(=O)CC(c2ccccc2)(c2ccccc2)C1=O)N1CCN(CCO)CC1`, the TGI in assay [1], in [2], in assay [3], in assay [4], in assay [5] and in assay [6] was over 100 µM each time. Further, the TGI in [7], in assay [8], in [9] and in assay [10] was over 100 µM each time.
With `CN1CCN(Cc2cc3c(nn2)-c2ccccc2C3=O)CC1`, the TGI in [2] is 64.3 µM; in assay [4], over 100 µM; in [11], over 100 µM; in assay [6] it was over 100 µM; in assay [7], over 100 µM; in [8], over 100 µM.
Turning to `CCOC(=O)c1c2cccccc-2nc1Nc1cccc2c(C)ccnc12`, the TGI in assay [1], in assay [3], in assay [4], in [5], in assay [11] and in assay [6] was over 10 µM throughout. Further, the TGI in assay [7], in assay [8], in assay [9] and in assay [10] was over 10 µM in each case.
As to `CCc1n[nH]c(=O)n1-c1ccc2ccccc2c1`, the TGI in [1], in assay [2], in assay [3], in assay [4], in assay [5] and in assay [11] was over 100 µM each time. The TGI in assay [6], in assay [7], in [9] and in assay [10] was over 100 µM in each case.
Turning to `C=C(C)[C@H]1C2=CC(C(=O)OC)=C(C[C@H](C(=C)C)[C@@H](O)[C@@H](O)C3=C[C@H]1OC3=O)O2`, the TGI in assay [1], in [2], in assay [3], in [4], in assay [5] and in assay [6] was over 100 µM throughout. Besides, the TGI in assay [7], in assay [8] and in [10] was over 100 µM in each case.
Take `CN(C)Cc1cc(C(=O)/C=C/c2ccc([N+](=O)[O-])cc2)cc(CN(C)C)c1O`: the TGI in assay [1] was 28.5 µM; in [2] it was 20.1 µM; in assay [3], 20.2 µM; in [4], over 100 µM; in assay [5], 19.5 µM; in assay [6], 26.2 µM. Also, the TGI was 14.9 µM in assay [7] and 37.1 µM in assay [8].
`CCOC(=O)/C(C(C)=O)=C(\OC(C)=O)c1ccncc1C(=O)O`: the TGI in [1], in assay [2], in assay [3], in assay [4], in assay [11] and in assay [6] was over 100 µM in each case. Moreover, the TGI in assay [7], in assay [8], in [9] and in assay [10] was over 100 µM throughout.
As to `COC1OC2COC(c3ccccc3)OC2C(O)C1OC(=S)c1ccccc1` (centres undefined), the TGI was over 100 µM in [1]; 48.4 µM in assay [3]; over 100 µM in [4]; 91.4 µM in assay [5]; over 100 µM in assay [11]; over 100 µM in assay [6]. For the same molecule, the TGI in [7] was 12.9 µM; in assay [8] it was over 100 µM; in assay [9], over 100 µM; in assay [10], over 100 µM.
Regarding `CCN(CC)c1ccc(/C=C/c2ccnc3ccccc23)cc1`, the TGI in assay [1], in assay [3], in assay [5], in assay [11], in assay [6] and in [7] was over 100 µM each time. Further, the TGI in assay [8], in assay [9] and in assay [10] was over 100 µM in each case.
`Cc1cc(N(C)C)c2ccccc2[n+]1CCCCCCCCCC[n+]1c(C)cc(N(C)C)c2ccccc21`: the TGI in assay [1] was 6.15 µM; in [2], over 29.7 µM; in [3], 4.72 µM; in assay [4] it was 16 µM; in assay [11], 13 µM; in assay [6], 5.44 µM. The TGI is 11.5 µM in assay [7], 15.4 µM in [8], 3.54 µM in assay [9] and 22.2 µM in assay [10].
For the molecule `N#CC(c1ccccc1)N(CCOCCOCCN(C(=O)c1ccccc1)C(C#N)c1ccccc1)C(=O)c1ccccc1` (centres undefined), the TGI in [1], in assay [3], in [4], in [11], in [6] and in assay [7] was over 100 µM in each case. Moreover, the TGI in assay [8], in assay [9] and in assay [10] was over 100 µM each time.
In the case of `O=C(OCC(Cl)(Cl)Cl)N1CC[C@H](C2CCCCC2)C1`, the TGI in assay [1] is 96.2 µM; in [2] it was 32.5 µM; in assay [3] it was over 100 µM; in assay [5] it was 32.8 µM; in assay [11], 35.1 µM; in assay [7], 13.6 µM. The results for the TGI in [8] and in [10] were 53.9 µM and 31.2 µM, respectively.
Turning to `CC(C)Oc1cccc(N2C(=NCc3c[nH]c4ccccc34)Nc3ccncc3S2(=O)=O)c1`, the TGI in assay [2] was 87.2 µM; in assay [3] it was over 100 µM; in assay [4], over 100 µM; in assay [5], over 100 µM; in assay [11], 77.6 µM; in assay [6] it was 56.6 µM. The TGI in assay [7], in assay [8], in [9] and in [10] was over 100 µM in each case.
For `Cc1cc(OP2(=O)NCc3ncccc3O2)ccc1Cl` (centres undefined), the TGI in assay [1], in assay [3], in assay [4], in assay [5], in [11] and in assay [6] was over 100 µM in each case. Further, the TGI in [7], in [8], in assay [9] and in assay [10] was over 100 µM in each case.
In the case of `COc1cc(O)c2c(=O)c(OC)c(-c3ccc(OC)c(O)c3)oc2c1`, the TGI in assay [1], in assay [2], in [3], in assay [4], in assay [5] and in assay [11] was over 100 µM in each case. The TGI in assay [7], in [8], in assay [9] and in [10] was over 100 µM each time.
Turning to `Nc1ncc2c(n1)-c1ccccc1OC2N1CCCC1` (centres undefined), the TGI in assay [1], in [2], in assay [3], in [4], in assay [5] and in assay [11] was over 100 µM each time. The TGI in assay [6], in assay [7], in [9] and in assay [10] was over 100 µM each time.
In the case of `O=C1c2cccc3cccc(c23)C(=O)N1CCCNCCCCNCCCNCCCN1C(=O)c2cccc3cccc(c23)C1=O`, the TGI came to 2.36 µM in assay [1]; 1.8 µM in assay [3]; 3.99 µM in [4]; 3.6 µM in [5]; 1.42 µM in [11]; 2.37 µM in assay [6]. Moreover, the TGI was found to be 1.73 µM in [7], 3.3 µM in assay [8], 2.95 µM in [9] and 1.76 µM in [10].
Take `COc1cc(C=O)ccc1O`: the TGI in [1], in assay [2], in assay [3], in [4], in [5] and in assay [11] was over 100 µM throughout. Moreover, the TGI in [6], in assay [7], in [9] and in assay [10] was over 100 µM each time.
In the case of `CSc1csc(-c2ccc(-c3ccc(-c4cc(SC)cs4)s3)s2)c1`, the TGI in assay [1], in [3], in [5], in assay [11], in assay [7] and in [8] was over 100 µM each time. For the same molecule, the TGI in assay [9] and in assay [10] was over 100 µM throughout.
As for `c1ccc(C(C(=Nc2ccc(Cc3ccc(N=C(C(c4ccccc4)c4ccccc4)N4CC4)cc3)cc2)N2CC2)c2ccccc2)cc1`, the TGI came out at 29.2 µM in assay [1]; 19.8 µM in assay [2]; 32.3 µM in assay [3]; 22.5 µM in assay [4]; 33 µM in assay [5]; 13.4 µM in assay [11]. Moreover, the TGI is 30.9 µM in assay [7], 24.7 µM in assay [8] and 21.4 µM in assay [9].
With `Cn1ncc2c(NCc3ccccc3)ncnc21`, the TGI in [1], in assay [3], in assay [4], in assay [5], in assay [11] and in [7] was over 100 µM in each case. The TGI in [8], in assay [9] and in assay [10] was over 100 µM each time.
For the molecule `O=c1onc2n1-c1cc(Cl)ccc1C(=S)N1CSCC21` (centres undefined), the TGI in [1], in assay [2], in [3], in assay [4], in assay [5] and in assay [11] was over 100 µM each time. Further, the TGI in [7], in [8], in [9] and in [10] was over 100 µM each time.
For the molecule `COc1ccc2oc(=N)c(C(=O)Nc3ccccc3)cc2c1`, the TGI in assay [1] was over 100 µM; in [2] it was 6.4 µM; in [3], over 100 µM; in assay [4], 46 µM; in [5], 41.7 µM; in [11], over 100 µM. The TGI in assay [7] was 55.1 µM; in [8], 43.8 µM; in assay [9], over 100 µM; in assay [10], over 100 µM.
Consider `[N-]=[N+]=CC(=O)OC(CCl)CCl`, for which the TGI in assay [1], in assay [2], in assay [3], in assay [5], in [11] and in assay [6] was over 100 µM throughout. In addition, the TGI in assay [7], in [8], in assay [9] and in [10] was over 100 µM in each case.
For `O=C1CSC2(CC(/C=C/c3cccs3)=NN2c2cccc(S(=O)(=O)O)c2)N1c1nc2ccccc2s1` (centres undefined), the TGI in assay [1], in [2], in assay [3], in [4], in assay [11] and in assay [6] was over 100 µM in each case. The TGI in assay [7], in [8], in [9] and in assay [10] was over 100 µM each time.
With `Cc1ccsc1/C=N/Nc1cnccn1`, the TGI in assay [1], in [3], in assay [4], in assay [5], in assay [6] and in [7] was over 100 µM throughout. In addition, the TGI in assay [8], in [9] and in assay [10] was over 100 µM throughout.
On to `O=C(O)c1cccc(S(=O)(=O)NN2C(=O)CSC2c2ccc(Cl)cc2Cl)c1` (centres undefined), for which the TGI in assay [1] was over 100 µM; in assay [2] it was 91.4 µM; in [3] it was over 100 µM; in [4], 30.2 µM; in assay [5], over 100 µM; in [11], over 100 µM. Also, the TGI was over 100 µM in assay [6], 44.7 µM in [7], over 100 µM in assay [8] and 75.8 µM in assay [9].
In the case of `N#Cc1sc2c(c1OC(=O)c1ccc(C(F)(F)F)cc1)c(=O)n(-c1ccccc1)c(=S)n2-c1ccccc1`, the TGI was over 100 µM in assay [1]; 3.51 µM in [2]; 88.1 µM in assay [3]; over 100 µM in [4]; over 100 µM in assay [5]; over 100 µM in assay [11]. Moreover, the TGI in assay [6] is 68.4 µM; in assay [7], 97 µM; in [9] it was over 100 µM; in assay [10], over 100 µM.
